These results are taken from publication PMC7497641, “Neurotropic activity and safety of methylene-cycloalkylacetate (MCA) derivative 3-(3-allyl-2-methylenecyclohexyl) propanoic acid” (ACS Chemical Neuroscience, 2020).

The subject of series [1] is dorsal root ganglion (DRG) sensory neurons. Kind of series: DRG neurite outgrowth assay. The format is cell-based, mice. The following applies: HU-MCA-13 5 μM, DRG explants, 5 days. An excerpt: In the second step, we study the effect of HU-MCA-13 on ex-vivo sensory neuronal cultures obtained from dissociated dorsal root ganglia (DRG), a model in which the neurons tend to extend neurites in culture at a high rate, and all neurite outgrowths are axons, as confirmed by immune staining for cytoskeletal-specific proteins.[27] […] By contrast, NGF induced a strong, 3.5-fold increase in neurite outgrowth to a value of 700 μm (Figure 1 and Figure 3B) and a ratio of 8.5 between the area covered by neurites and that covered by the DRG ganglia (Figure 3C). Similarly, HU-MCA-13 induced a 2.5 fold increase in neurite outgrowth to a value of about 500 μm (Figure 1 and Figure 3B) and a ratio of 5.4 between the area covered by neurites and that covered by the DRG ganglia (Figure 3C). […] These experiments extend the neurotropic effect of MCA-13 observed with PC12 dopaminergic neuronal cultures to DRG sensory neurons.
To perform these experiments, 10 DRGs were excised under sterile conditions and transferred to Dulbecco’s Modified Eagle Medium (DMEM) containing 0.25% Type IV collagenase in at 37 °C for 45 min, followed by a 20 min incubation with 0.025% trypsin in DMEM, to digest the associated connective tissue surrounding the neurons. After plating the ganglia onto collagen (50 μg/mL)/laminin mixture (5 μg/mL)-coated tissue culture wells for 24 h, DRG neurons were cultured for additional 1–7 days in fresh Neurobasal A/B27 medium[27] containing either 50 ng/mL NGF (positive control), medium containing 1% DMSO (negative control) or 5 μM MCA-13. The living cultures were photographed and thereafter, the ganglia were immunostained for β tubulin III and again photographed using a fluorescent microscope. A researcher blinded to the experimental conditions performed image analysis, and the neurite outgrowth length (in micrometers) was measured.[50]

Series [2] has as its target Nuclear Hormone Androgen Receptor (AR) (Homo sapiens, UniProt P10275). Kind of series: SAFETYscan Nuclear Hormone Receptor assay. It counts as cell-based.
In series [3] the target is T1, Opioid Receptor Mu 1 (OPRM1) (Homo sapiens, UniProt P35372).
T1 construct: host or cells: cAMP Hunter cell lines
The series can be described thus: cell-based. The following applies: cAMP, read-out: RC50 (the source's name).

Series [4] concerns the target Muscarinic acetylcholine Receptor M3 (CHRM3) (Homo sapiens, UniProt P20309). The series can be described thus: cell-based. The following applies: Calcium Flux, read-out: RC50 (the source's name). On the technique in general: Calcium flux is commonly read through the fluorescence of an indicator in the cells.
Series [5] deals with T2, Adrenergic Receptor α2A (ADRA2A) (Homo sapiens, UniProt P08913).
T2 construct: host or cells: cAMP Hunter cell lines
The series can be described thus: SAFETYscan GPCR cAMP. It counts as cell-based.

For series [6], the target named is Muscarinic acetylcholine Receptor M1 (CHRM1) (Homo sapiens, UniProt P11229). Kind of series: cell-based. The following applies: Calcium Flux, read-out: RC50 (the source's name).
The target in series [7] is T3, Kv11.1, the alpha subunit of a potassium ion channel (hERG) (Homo sapiens, UniProt Q12809).
T3 construct: host or cells: unnamed DiscoverX cell line
The series can be described thus: cell-based. The following applies: Blocker.

In series [8] the test system is neurons from the spinal cord. The series can be described thus: Spinal cord neuron survival. The following applies: in the presence of HU-MCA-13; 48 h in culture. It counts as cell-based, rat. The method, then: We also examined whether HU-MCA-13 would promote the survival of neurons from the spinal cord, by counting the number of neurons remaining after 48 h in culture. From our counts we estimated that 58 ± 10% of the neurons present at 3 h after plating survived for 48 h in the presence of HU-MCA-13, compared with only 35 ± 5% for neurons cultured without HU-MCA-13.
Spinal cords were isolated from adult rats (4–6 months old), and the meninges were removed from the spinal cord. The spinal cord was then cut into small pieces and collected in cold Hibernate A (Brainbits, Springfield, IL, USA), glutamine (0.5 mM), and B27 (Invitrogen, Carlsbad, CA). Briefly, dissected pieces of adult rat spinal cord tissue were maintained in phosphate-buffered saline (PBS) without Ca^2+ and Mg^2+ and pooled together and transferred to an enzymatic dissociation media containing 20 IU/ml papain in Earle’s balanced salt solution (Worthington Biochemical, Freehold, NJ) and incubated for 30 min at 37 °C. […] Neurite outgrowth was measured and presented as mean length of a neurite (microns). To measure neuronal survival, 450 cells were counted in 10 randomly chosen microscope fields of a known area in each of the three dishes per condition using a 20× objective and phase-contrast optics. […]

The target in series [9] is T4, Monoamine oxidase type A (MAOA) (Homo sapiens, UniProt P21397).
T4 construct: purchased Sigma-Aldrich-Merck
Kind of series: SAFETYscan Enzymatic assay. It counts as biochemical. The following applies: Inhibitor.

Series [10] has as its target T5, 5-Hydroxy-tryptamine (Serotonin) Receptor 3A (HTR3A) (Homo sapiens, UniProt P46098).
T5 construct: host or cells: unnamed DiscoverX cell line
Kind of series: SAFETYscan Ion channel assay. The format is cell-based.

In series [11] the test system is PC12 dopaminergic cell cultures. The series can be described thus: PC12 neurotropic (neurite outgrowth) assay. The format is cell-based, rat.
Where [12] appears, read: read-out: RC50 (the source's name).

T4 sequence (P21397 whole entry): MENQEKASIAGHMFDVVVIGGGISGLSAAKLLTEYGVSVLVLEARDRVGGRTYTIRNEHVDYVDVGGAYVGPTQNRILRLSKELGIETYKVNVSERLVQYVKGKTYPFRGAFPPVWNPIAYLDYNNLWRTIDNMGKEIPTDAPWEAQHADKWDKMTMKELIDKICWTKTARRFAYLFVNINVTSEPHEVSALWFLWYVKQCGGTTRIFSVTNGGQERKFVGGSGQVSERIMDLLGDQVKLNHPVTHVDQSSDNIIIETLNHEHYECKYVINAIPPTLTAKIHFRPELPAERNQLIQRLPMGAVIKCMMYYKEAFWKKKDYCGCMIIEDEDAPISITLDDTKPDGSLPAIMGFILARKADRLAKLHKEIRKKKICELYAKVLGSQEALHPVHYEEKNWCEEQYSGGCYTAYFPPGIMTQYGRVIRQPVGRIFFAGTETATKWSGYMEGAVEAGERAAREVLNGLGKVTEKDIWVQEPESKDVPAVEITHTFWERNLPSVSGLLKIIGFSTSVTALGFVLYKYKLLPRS
Nuclear Hormone Androgen Receptor (AR), sequence (P10275 whole entry): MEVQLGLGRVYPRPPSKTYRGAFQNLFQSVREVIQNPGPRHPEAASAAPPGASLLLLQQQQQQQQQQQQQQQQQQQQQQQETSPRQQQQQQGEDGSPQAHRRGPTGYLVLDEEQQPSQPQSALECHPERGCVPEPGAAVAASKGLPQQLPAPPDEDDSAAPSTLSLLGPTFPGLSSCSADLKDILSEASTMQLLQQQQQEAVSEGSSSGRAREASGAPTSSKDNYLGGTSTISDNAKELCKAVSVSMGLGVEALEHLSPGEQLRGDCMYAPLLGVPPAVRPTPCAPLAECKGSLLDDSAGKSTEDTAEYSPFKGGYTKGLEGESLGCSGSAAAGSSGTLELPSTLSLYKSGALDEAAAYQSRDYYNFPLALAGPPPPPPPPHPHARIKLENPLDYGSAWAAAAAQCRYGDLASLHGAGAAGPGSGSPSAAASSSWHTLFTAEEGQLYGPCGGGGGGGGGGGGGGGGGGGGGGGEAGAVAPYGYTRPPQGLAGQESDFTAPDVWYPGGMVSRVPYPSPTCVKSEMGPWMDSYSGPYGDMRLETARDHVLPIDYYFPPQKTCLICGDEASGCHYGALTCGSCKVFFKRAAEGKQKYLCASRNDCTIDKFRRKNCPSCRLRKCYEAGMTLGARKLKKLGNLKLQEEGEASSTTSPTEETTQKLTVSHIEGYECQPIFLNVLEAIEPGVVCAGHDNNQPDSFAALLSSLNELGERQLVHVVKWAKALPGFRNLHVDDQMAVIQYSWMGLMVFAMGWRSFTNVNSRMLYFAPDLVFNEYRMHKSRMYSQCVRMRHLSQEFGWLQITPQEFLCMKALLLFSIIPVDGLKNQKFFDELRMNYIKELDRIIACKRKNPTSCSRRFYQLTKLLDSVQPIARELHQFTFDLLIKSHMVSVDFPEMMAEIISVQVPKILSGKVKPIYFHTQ
T2 sequence (P08913 whole entry): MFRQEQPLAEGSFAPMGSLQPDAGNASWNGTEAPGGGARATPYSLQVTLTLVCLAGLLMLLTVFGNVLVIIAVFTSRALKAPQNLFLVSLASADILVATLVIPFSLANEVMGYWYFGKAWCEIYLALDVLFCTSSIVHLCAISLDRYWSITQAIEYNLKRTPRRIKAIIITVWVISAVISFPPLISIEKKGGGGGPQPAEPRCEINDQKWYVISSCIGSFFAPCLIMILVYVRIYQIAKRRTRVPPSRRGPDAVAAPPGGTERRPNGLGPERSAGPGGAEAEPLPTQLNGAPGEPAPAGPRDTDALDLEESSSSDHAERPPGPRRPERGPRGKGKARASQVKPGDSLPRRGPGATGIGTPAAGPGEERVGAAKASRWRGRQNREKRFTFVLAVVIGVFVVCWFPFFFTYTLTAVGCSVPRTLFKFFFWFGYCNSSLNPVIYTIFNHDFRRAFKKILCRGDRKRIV
T5 sequence (P46098 24-478): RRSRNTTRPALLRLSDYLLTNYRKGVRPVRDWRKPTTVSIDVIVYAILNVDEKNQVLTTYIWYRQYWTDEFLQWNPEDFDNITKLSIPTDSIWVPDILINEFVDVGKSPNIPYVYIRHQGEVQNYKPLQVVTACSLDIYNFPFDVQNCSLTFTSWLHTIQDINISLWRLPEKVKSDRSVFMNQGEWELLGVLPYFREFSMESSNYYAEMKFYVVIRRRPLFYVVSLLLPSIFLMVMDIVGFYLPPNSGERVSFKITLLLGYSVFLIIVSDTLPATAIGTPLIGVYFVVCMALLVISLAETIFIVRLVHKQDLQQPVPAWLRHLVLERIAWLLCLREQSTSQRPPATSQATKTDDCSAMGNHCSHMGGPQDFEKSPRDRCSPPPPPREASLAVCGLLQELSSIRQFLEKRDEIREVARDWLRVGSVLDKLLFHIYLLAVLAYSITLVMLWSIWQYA
Muscarinic acetylcholine Receptor M3 (CHRM3), sequence (P20309 whole entry): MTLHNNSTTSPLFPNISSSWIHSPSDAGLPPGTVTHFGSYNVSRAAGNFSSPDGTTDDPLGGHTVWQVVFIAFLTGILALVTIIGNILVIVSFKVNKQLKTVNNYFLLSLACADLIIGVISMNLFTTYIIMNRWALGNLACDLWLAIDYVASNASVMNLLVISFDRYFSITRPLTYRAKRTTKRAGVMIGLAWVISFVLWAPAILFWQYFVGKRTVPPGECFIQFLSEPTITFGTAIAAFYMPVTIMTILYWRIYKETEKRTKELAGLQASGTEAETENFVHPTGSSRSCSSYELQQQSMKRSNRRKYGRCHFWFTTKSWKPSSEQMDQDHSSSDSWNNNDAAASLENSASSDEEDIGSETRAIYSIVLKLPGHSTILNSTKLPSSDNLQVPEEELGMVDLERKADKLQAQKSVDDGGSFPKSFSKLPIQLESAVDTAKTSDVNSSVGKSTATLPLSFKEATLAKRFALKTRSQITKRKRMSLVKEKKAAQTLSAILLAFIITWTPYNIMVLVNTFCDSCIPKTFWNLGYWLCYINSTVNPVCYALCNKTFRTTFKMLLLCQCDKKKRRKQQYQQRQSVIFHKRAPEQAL
T3 sequence (Q12809 whole entry): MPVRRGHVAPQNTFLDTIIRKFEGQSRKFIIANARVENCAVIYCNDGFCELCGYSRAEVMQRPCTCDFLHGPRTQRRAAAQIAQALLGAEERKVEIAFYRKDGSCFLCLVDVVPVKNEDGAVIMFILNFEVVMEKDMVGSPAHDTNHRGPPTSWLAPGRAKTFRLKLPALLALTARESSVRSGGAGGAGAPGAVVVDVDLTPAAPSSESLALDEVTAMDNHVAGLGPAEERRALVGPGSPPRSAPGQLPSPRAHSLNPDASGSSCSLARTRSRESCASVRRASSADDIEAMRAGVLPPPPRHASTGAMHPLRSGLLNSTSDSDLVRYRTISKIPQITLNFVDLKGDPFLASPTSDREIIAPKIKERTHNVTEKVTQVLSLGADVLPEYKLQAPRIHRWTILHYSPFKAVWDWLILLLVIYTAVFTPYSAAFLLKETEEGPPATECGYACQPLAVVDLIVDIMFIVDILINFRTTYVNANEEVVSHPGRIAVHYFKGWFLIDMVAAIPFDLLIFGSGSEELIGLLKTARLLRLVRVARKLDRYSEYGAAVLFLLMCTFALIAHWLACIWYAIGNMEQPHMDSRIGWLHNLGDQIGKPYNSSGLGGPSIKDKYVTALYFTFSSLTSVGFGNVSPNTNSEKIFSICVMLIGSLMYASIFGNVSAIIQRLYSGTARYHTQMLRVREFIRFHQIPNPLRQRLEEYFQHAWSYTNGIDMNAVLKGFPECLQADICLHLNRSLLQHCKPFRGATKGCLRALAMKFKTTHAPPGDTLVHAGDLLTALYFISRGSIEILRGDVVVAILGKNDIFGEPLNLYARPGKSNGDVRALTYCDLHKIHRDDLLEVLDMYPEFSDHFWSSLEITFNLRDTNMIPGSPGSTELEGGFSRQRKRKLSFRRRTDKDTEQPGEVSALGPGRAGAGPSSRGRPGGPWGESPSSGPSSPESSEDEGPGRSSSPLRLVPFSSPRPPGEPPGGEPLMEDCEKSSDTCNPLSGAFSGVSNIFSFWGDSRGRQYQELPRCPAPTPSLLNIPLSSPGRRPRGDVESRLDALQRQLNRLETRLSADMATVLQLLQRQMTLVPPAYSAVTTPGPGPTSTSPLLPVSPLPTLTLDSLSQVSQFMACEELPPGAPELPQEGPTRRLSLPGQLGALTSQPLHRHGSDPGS
Muscarinic acetylcholine Receptor M1 (CHRM1), sequence (P11229 whole entry): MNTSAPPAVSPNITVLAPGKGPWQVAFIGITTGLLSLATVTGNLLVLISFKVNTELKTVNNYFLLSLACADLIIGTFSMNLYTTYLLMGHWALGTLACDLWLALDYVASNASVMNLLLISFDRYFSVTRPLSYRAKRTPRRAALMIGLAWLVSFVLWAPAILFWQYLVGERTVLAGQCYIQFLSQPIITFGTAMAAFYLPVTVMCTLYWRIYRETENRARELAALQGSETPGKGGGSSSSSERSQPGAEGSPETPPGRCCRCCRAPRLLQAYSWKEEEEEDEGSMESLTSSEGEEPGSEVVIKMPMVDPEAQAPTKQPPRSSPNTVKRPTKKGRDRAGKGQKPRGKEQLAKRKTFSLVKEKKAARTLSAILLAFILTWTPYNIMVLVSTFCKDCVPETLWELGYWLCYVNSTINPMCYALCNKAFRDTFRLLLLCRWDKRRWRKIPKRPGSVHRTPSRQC
T1 sequence (P35372 whole entry): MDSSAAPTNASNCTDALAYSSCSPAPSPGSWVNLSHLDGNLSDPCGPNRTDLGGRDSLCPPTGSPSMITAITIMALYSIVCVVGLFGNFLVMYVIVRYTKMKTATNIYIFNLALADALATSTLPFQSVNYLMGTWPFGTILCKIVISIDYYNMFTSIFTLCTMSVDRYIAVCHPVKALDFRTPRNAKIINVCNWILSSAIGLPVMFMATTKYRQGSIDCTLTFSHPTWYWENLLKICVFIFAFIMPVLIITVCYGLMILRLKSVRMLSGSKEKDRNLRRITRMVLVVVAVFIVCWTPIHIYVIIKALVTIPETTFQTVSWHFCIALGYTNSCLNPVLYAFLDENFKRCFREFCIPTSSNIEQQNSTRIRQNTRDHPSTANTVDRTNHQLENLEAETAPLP

As to `C=CCC1CCCC(CCC(=O)O)C1=C` (stereo not drawn) [HU-MCA-13, 3-(3-allyl-2-methylenecyclohexyl)propanoic acid], the neurite outgrowth length result in [1] is “about 500 μm”. Besides, the “ratio between the area covered by neurites and that covered by the DRG ganglia” value in [1] turned out to be 5.4. The “fold increase in neurite outgrowth” value in series [1] (versus control medium) was determined as 2.5 fold. The EC50 in series [2], in series [3] (Agonist), in [4] (Agonist), in series [5], in series [6] (Agonist) and in series [10] was greater than 10 µM throughout. Also, the IC50 in series [2], in [3] (Antagonist), in [4] (Antagonist), in [5], in [6] (Antagonist) and in series [7] (setting [12]) was greater than 10 µM in each case. Besides, the IC50 in [9] (setting [12]) and in series [10] was greater than 10 µM throughout. Moreover, the “MCA-13 Max. Responce” value in series [7] (10 μM) worked out at 0%. The “neurons present at 3 h after plating that survived for 48 h” value in [8] stood at 58 ± 10%. Besides, the inhibition at 10 µM in series [9] (10 μM, read-out: MCA-13 Max. Responce) worked out at 1.86%. Moreover, in series [11] (250 nM K252a, 10 μM HU-MCA-13), the “neurotropic effect in the presence of Trk A inhibitor K252a” value is recorded as “did not abolished”. Besides, in [11] (5 μM, 7 days), the “β tubulin III expression in cell bodies and neurite outgrowths (immunostaining)” value is reported as “expressed β tubulin III”. Further, the neurite outgrowth in series [11] (HU-MCA-13 1 μM) is 10–15%. Besides, the “neurite outgrowth, Df” value in series [11] (HU-MCA-13 1 μM) was 0.04.
